Test results published in publication PMC6353076, “Impact of CodY protein on metabolism, sporulation and virulence in Clostridioides difficile ribotype 027” (PLoS ONE, 2019).

Target: T1, CdCodY GAF domain (Clostridioides difficile, UniProt Q18BE1)
T1 construct: gene codY; N-terminal GAF domain, CdCodY(1-156); six molecules in the asymmetric unit
Test: X-ray crystal structure, […] A
Type: binding
Conditions: GAF-domain effector pocket; contacts N40, Y42, D60, S62, F74, F101, E104, K110, S130

T1 sequence (Q18BE1 entry or part of it): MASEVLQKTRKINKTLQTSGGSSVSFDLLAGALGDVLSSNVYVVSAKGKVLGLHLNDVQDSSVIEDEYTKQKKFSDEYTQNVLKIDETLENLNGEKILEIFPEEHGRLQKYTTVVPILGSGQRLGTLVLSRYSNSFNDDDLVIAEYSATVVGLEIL

In the case of CC[C@H](C)[C@H](N)C(=O)O [isoleucine], the “X-ray crystal structure, 1.7 A” value is reported as “The crystal structure of the GAF domain of CdCodY bound to isoleucine was solved”.
